From ChEMBL document CHEMBL1201862, “PubChem BioAssay data set” (2004) come the findings set out here.

SMILES strings stand for the structures.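 Growth conditions: 96-well plates. Treatment: test compound, 48 hours, 5 concentrations. Analysis: linear interpolation between bracketing concentrations; unreached endpoints set to highest concentration. GI50 = concentration required for 50% inhibition of growth.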 The source made the active and inactive calls. Cut-off read from the data, not from the text of the source: active = GI50 up to about 1.1 µM and inactive = higher.

Among the test systems are OVCAR-8; SN12C; RPMI-8226; SK-MEL-2; HL-60; NCI-H23; UACC-62; OVCAR-4; A549; U-251; EKVX; RXF 393; NCI-H226; CAKI-1; CCRF-CEM; TK-10; Malme-3M; NCI-H522; HT-29; K562.
Common to all, as to experiment: DTP human tumour cell line panel, 48 h

The GI50 is the concentration at which growth is held to half of that of the control. In the case of `C[C@H]1C(=O)O[C@@H]1[C@H]1COC(C)(C)O1`, the GI50 in the experiment with OVCAR-8 was > 100 µM (inactive); in the experiment on SN12C it was > 100 µM (inactive); in the experiment with RPMI-8226, > 100 µM (inactive); in the experiment with SK-MEL-2, > 100 µM (inactive); in the experiment with HL-60 it was 0.769 µM (active); in the experiment on NCI-H23 it was > 100 µM (inactive). In addition, the GI50 in the experiment with UACC-62, in the experiment with OVCAR-4, in the experiment on A549, in the experiment with U-251, in the experiment with EKVX and with RXF 393 was > 100 µM (inactive) throughout. The GI50 is > 100 µM (inactive) in the experiment with NCI-H226, > 100 µM (inactive) in the experiment with CAKI-1, 32.5 µM (inactive) with CCRF-CEM and > 100 µM (inactive) in the experiment on TK-10.

Turning to `CCOc1ccc(/C(C=O)=C(\Cl)c2ccc(OC)c(OC)c2)cc1`, the GI50 in the experiment with OVCAR-8 was > 100 µM (inactive); in the experiment on SN12C, > 100 µM (inactive); in the experiment with RPMI-8226, > 100 µM (inactive); in the experiment with SK-MEL-2, > 100 µM (inactive); in the experiment on Malme-3M, > 100 µM (inactive); in the experiment with HL-60, 11.4 µM (inactive). The GI50 was > 100 µM (inactive) in the experiment with NCI-H23; 68.9 µM (inactive) in the experiment on UACC-62; > 100 µM (inactive) in the experiment on NCI-H522; > 100 µM (inactive) with HT-29; > 100 µM (inactive) in the experiment on K562; > 100 µM (inactive) with U-251. The GI50 with EKVX, with NCI-H226, in the experiment on CAKI-1, in the experiment with CCRF-CEM and in the experiment on TK-10 was > 100 µM (inactive) throughout.

As for `O=C(/C=N/c1ccccc1S)c1ccco1`, the GI50 was 11.5 µM (inactive) in the experiment on OVCAR-8; 8.09 µM (inactive) with SN12C; 14.8 µM (inactive) with RPMI-8226; 16.4 µM (inactive) with SK-MEL-2; 18.9 µM (inactive) with Malme-3M; 4.17 µM (inactive) with HL-60. Also, the GI50 in the experiment on NCI-H23 was 4.01 µM (inactive); in the experiment with UACC-62, 15.5 µM (inactive); in the experiment with OVCAR-4, 13.4 µM (inactive); in the experiment with NCI-H522, 15.5 µM (inactive); in the experiment on HT-29 it was 13.3 µM (inactive); with A549, 5.11 µM (inactive). Also, the GI50 was 18.2 µM (inactive) with K562; 5.53 µM (inactive) in the experiment with U-251; 10.7 µM (inactive) with EKVX; 15.4 µM (inactive) in the experiment with RXF 393; 19.6 µM (inactive) in the experiment with CAKI-1; 3.14 µM (inactive) in the experiment with CCRF-CEM. Moreover, the GI50 with TK-10 was 19.1 µM (inactive).

As for `COc1cc(/C=C/C(=O)Oc2ccc(NC(C)=O)cc2)ccc1C(=O)O/C=C/c1ccccc1`, the GI50 in the experiment with OVCAR-8, with SN12C, in the experiment on RPMI-8226, in the experiment on SK-MEL-2, with Malme-3M and in the experiment on HL-60 was > 100 µM (inactive) in each case. Further, the GI50 with NCI-H23, in the experiment on UACC-62, in the experiment on OVCAR-4, with NCI-H522, with HT-29 and in the experiment on A549 was > 100 µM (inactive) throughout. For the same compound, the GI50 in the experiment on K562 is > 31.6 µM (inactive); in the experiment on U-251, > 100 µM (inactive); with EKVX it was > 100 µM (inactive); with RXF 393 it was > 100 µM (inactive); in the experiment on NCI-H226 it was > 100 µM (inactive); with CCRF-CEM, > 100 µM (inactive).

As for `CCOC(=O)NC(Nc1ncccn1)(C(=O)OCC)C(F)(F)F` (stereo not given), the GI50 in the experiment with OVCAR-8, with SN12C, in the experiment on RPMI-8226, with SK-MEL-2, in the experiment on HL-60 and in the experiment on NCI-H23 was > 100 µM (inactive) each time. The GI50 in the experiment on UACC-62 is 63.4 µM (inactive); in the experiment with OVCAR-4 it was > 100 µM (inactive); with NCI-H522, > 100 µM (inactive); in the experiment with HT-29, > 100 µM (inactive); in the experiment on A549, > 100 µM (inactive); in the experiment on K562 it was > 100 µM (inactive). The GI50 in the experiment with U-251, in the experiment with EKVX, with RXF 393, in the experiment with CAKI-1, in the experiment with CCRF-CEM and with TK-10 was > 100 µM (inactive) each time.

In the case of `CC(C)(C)OC(=O)NCC(=O)NC1C/C(=N\O)c2sccc21` (stereo not given), the GI50 in the experiment with OVCAR-8, in the experiment with SN12C, in the experiment on SK-MEL-2, with Malme-3M, in the experiment with HL-60 and with NCI-H23 was > 100 µM (inactive) each time. Also, the GI50 with UACC-62, in the experiment with OVCAR-4, in the experiment with HT-29, in the experiment with A549, in the experiment with K562 and in the experiment with U-251 was > 100 µM (inactive) each time. Moreover, the GI50 in the experiment with EKVX, in the experiment with RXF 393, in the experiment on NCI-H226, in the experiment with CAKI-1, in the experiment on CCRF-CEM and in the experiment with TK-10 was > 100 µM (inactive) throughout.

With `O=c1[nH]c(-c2ccc(Cl)cc2)cc2ccsc12`, the GI50 is 8.41 µM (inactive) with OVCAR-8; 5.5 µM (inactive) in the experiment on SN12C; 3.1 µM (inactive) with RPMI-8226; 3.21 µM (inactive) with SK-MEL-2; 1.2 µM (inactive) in the experiment on Malme-3M; 2.94 µM (inactive) in the experiment with HL-60. For the same compound, the GI50 with NCI-H23 is 4.92 µM (inactive); with UACC-62 it was 8.22 µM (inactive); with OVCAR-4, 23.3 µM (inactive); in the experiment with NCI-H522, 3.31 µM (inactive); in the experiment on HT-29 it was 4.07 µM (inactive); in the experiment on A549, 3.5 µM (inactive). In addition, the GI50 with K562 is 5.16 µM (inactive); with U-251, 3.14 µM (inactive); with EKVX, 8.38 µM (inactive); in the experiment with RXF 393 it was 12.2 µM (inactive); in the experiment on NCI-H226, > 100 µM (inactive); in the experiment on CAKI-1, 2.52 µM (inactive). Further, in the experiment with TK-10, the GI50 was 2.82 µM (inactive).

For `CCOC(=O)NC(Nc1ccc(Cl)cn1)(C(F)(F)F)C(F)(F)F`, the GI50 in the experiment with RPMI-8226, in the experiment with SK-MEL-2, in the experiment with Malme-3M, with HL-60, in the experiment on NCI-H23 and with UACC-62 was > 100 µM (inactive) in each case. Moreover, the GI50 in the experiment with NCI-H522 was > 100 µM (inactive); with HT-29 it was > 100 µM (inactive); in the experiment with K562 it was > 100 µM (inactive); in the experiment on U-251, > 100 µM (inactive); in the experiment on EKVX, > 100 µM (inactive); with RXF 393, 97.5 µM (inactive). Besides, the GI50 with NCI-H226, in the experiment with CCRF-CEM and in the experiment on TK-10 was > 100 µM (inactive) throughout.

On to `O=C1c2ccccc2C(=O)N1CC(O)COc1cccc2ccccc12` (stereo not given), for which the GI50 in the experiment on OVCAR-8 was > 100 µM (inactive); in the experiment on RPMI-8226 it was > 100 µM (inactive); in the experiment with Malme-3M, 61.8 µM (inactive); in the experiment with HL-60 it was > 100 µM (inactive); in the experiment on UACC-62 it was > 100 µM (inactive); in the experiment with NCI-H522, > 100 µM (inactive). In addition, the GI50 in the experiment with HT-29 is > 100 µM (inactive); in the experiment on A549, > 100 µM (inactive); with K562 it was > 100 µM (inactive); with U-251, > 100 µM (inactive); in the experiment with EKVX, > 100 µM (inactive); in the experiment on CAKI-1, 16.2 µM (inactive). For the same compound, the GI50 in the experiment with CCRF-CEM and in the experiment with TK-10 was > 100 µM (inactive) in each case.

On to `Clc1ccc(C[P+](c2ccccc2)(c2ccccc2)c2ccccc2)c(Cl)c1`, for which the GI50 with OVCAR-8 is 2.75 µM (inactive); with SN12C, 2.7 µM (inactive); in the experiment on RPMI-8226 it was 0.463 µM (active); in the experiment on SK-MEL-2, 2.18 µM (inactive); in the experiment on Malme-3M, 3.87 µM (inactive); in the experiment on HL-60, 0.8 µM (active). Moreover, the GI50 with NCI-H23 was 2.89 µM (inactive); with UACC-62, 2.4 µM (inactive); with OVCAR-4, 4.04 µM (inactive); in the experiment with NCI-H522 it was 1.67 µM (inactive); in the experiment with HT-29 it was 1.66 µM (inactive); in the experiment with A549, 4.47 µM (inactive). For the same compound, the GI50 is 2.49 µM (inactive) with U-251; 3.44 µM (inactive) with EKVX; 2.7 µM (inactive) with RXF 393; 2.34 µM (inactive) in the experiment on NCI-H226; 2.99 µM (inactive) in the experiment with CCRF-CEM; 6.52 µM (inactive) with TK-10.

For `CCC(C)C1NC(=O)C2CCCN2C(=O)C(CC2CO2)OC(=O)CCNC(=O)C(C)N(C)C(=O)C(C(C)C)N(C)C1=O` (stereo not given), the GI50 with OVCAR-8 is 0.22 µM (active); in the experiment with SN12C, > 100 µM (inactive); in the experiment on RPMI-8226 it was 0.968 µM (active); with SK-MEL-2, < 0.0158 µM (active); in the experiment on Malme-3M, 0.0142 µM (active); with HL-60, < 0.0223 µM (active). Also, the GI50 in the experiment on UACC-62 is 0.0209 µM (active); in the experiment on OVCAR-4, 3.11 µM (inactive); in the experiment with NCI-H522, 3.3 µM (inactive); with HT-29, 1.73 µM (inactive); in the experiment with A549, 0.197 µM (active); in the experiment on K562, 0.0946 µM (active). For the same compound, the GI50 was 2.75 µM (inactive) in the experiment on U-251; 35.4 µM (inactive) in the experiment with EKVX; 0.0713 µM (active) with RXF 393; > 5.08 µM (inactive) with NCI-H226; 0.993 µM (active) with CAKI-1; > 14 µM (inactive) with TK-10.
